The record followed here is patent US6818203B2, “Use of perfluoroalkyl-containing metal complexes as contrast media in MR-imaging for visualization of plaque, tumors and necroses” (Schering Aktiengesellschaft, priority 2000, dated 2004).

Series [1] is described as follows: hydrodynamic micelle diameter (2 Rh) by photon correlation spectroscopy (PCS). Type of series: physicochemical. An excerpt:
The amphiphilic compounds according to the invention are combined in solution and are present as aggregates. The size (2 Rh) of such aggregates (e.g., micelles, rods, wafers, etc.) can be determined with the aid of […] (PCS).
As a second criterion, the hydrodynamic micelle diameter 2 Rh, which must be >1 nm, is therefore used. Those perfluoroalkyl-containing metal complexes according to the invention whose 2 RH is ≧3, quite especially preferably >4 nm, are especially suitable.
(§1) Both the determination of the CMC and the photon correlation spectroscopy are described in H.-D. Dörfler, “Grenzflächen- und Kolloidchemie [Interface and Colloid Chemistry],” Weinheim, New York, Basel, Cambridge, Tokyo, VSH 1994.

Series [2] is described as follows: proton relaxivity in plasma (R^1), Minispec P 20. The settings on record: 40° C., 0.47 tesla, bovine plasma. Type of series: physicochemical. On the procedure: As a third criterion, the proton-relaxivity in plasma (R^1) at 40° C. and a field strength of 0.47 tesla is used. The relaxivity, which is indicated in [l/mmol·s], is the quantitative measurement for the shortening of relaxation time T^1 of the protons. For the purpose according to the invention, the relaxivity must be as high as possible and >10 l/mmol·s, preferably >13 l/mmol·s, especially preferably >15 l/mmol·s.
Relaxivity R^1 [l/mmol·s] of the MR-contrast media according to the invention was determined with the Minispec P 20 device of the Bruker Company. The measurements were taken at 40° C. and a field strength of 0.47 tesla. Eight measuring points were recorded by each T1-sequence: 180°-TI-90°, inversion recovery. As a medium, bovine plasma of the Kraeber Company was used. The contrast medium concentrations [mmol/l] in the batches were between 0.30 and 1.16.

Series [3] in a line: critical micelle formation concentration (CMC) by tensiometry. Type of series: physicochemical. On the procedure:
In aqueous systems, these amphiphilic molecules show the properties that are characteristic of standard surfactants (such as, e.g., sodium dodecylsulfate, SDS). They thus reduce the surface tension of water. By tensiometry, the so-called CMC (critical micelle formation concentration in mol/l) can be determined. In this respect, the surface tension is determined based on the concentration of the substance to be measured. The CMC can be calculated from the plot of the surface tension function (c) that is obtained. The critical micelle formation concentration of the compounds according to the invention must be <10^−3 mol/l, preferably <10^−4 mol/l.
as §1

The subject of the next series is myocardial infarction. Kind of series: infarction visualization (MRT) after intravenous administration in rats with acutely induced myocardial infarction. Type of series: in vivo. Particulars: 24 hours after i.v. 100 μmol of Gd/kg. An excerpt: The successful induction of an acute myocardial infarction was confirmed by means of NBT-staining.
Series [4] deals with primary tumor (VX2-tumor implanted i.m.). Kind of series: tumor visualization (MRT) after intravenous administration in VX2-tumor-bearing rabbits. Type of series: in vivo. Particulars: 100 μmol of Gd/kg i.v. On the procedure:
The pictures of FIG. 6 show MR images of an iliac lymph node and of a primary tumor (VX2-tumor implanted i.m.) precontrast, 60 minutes and 20 hours after intravenous administration of 100 μmol of Gd/kg of body weight of metal complex I in rabbits. […]

The subject of a further series is iliac lymph nodes. Put plainly: lymph node visualization (MRT) after intravenous administration in VX2-tumor-bearing rabbits. Type of series: in vivo. Particulars: 100 μmol of Gd/kg i.v.; 60 minutes and 20 hours. On the procedure:
The pictures of FIG. 6 show MR images of an iliac lymph node and of a primary tumor (VX2-tumor implanted i.m.) precontrast, 60 minutes and 20 hours after intravenous administration of 100 μmol of Gd/kg of body weight of metal complex I in rabbits. […] The enhancement in the healthy lymph node tissue was 382% at the time of 15 minutes p.i. and 419% at the time of 60 minutes p.i. […] The ratio of signal intensities of healthy lymph node tissue to metastasis was 3.0 at the time of 15 minutes p.i. and 3.4 at the time of 60 minutes p.i. […] The enhancement in the healthy lymph node tissue was 246% at the time of 15 minutes p.i. and 282% at the time of 60 minutes p.i. […] The ratio of signal intensities of healthy lymph node tissue to metastasis was 2.5 at the time of 15 minutes p.i. and 1.7 at the time of 60 minutes p.i. […] The enhancement in the healthy lymph node tissue was 297% at the time of 10 minutes p.i. and 269% at the time of 60 minutes p.i. […] The ratio of signal intensities of healthy lymph node tissue to metastasis was 5.1 at the time of 10 minutes p.i. and 1.9 at the time of 60 minutes p.i. […] The enhancement in the healthy lymph node tissue was 195% at the time of 15 minutes p.i. and 233% at the time of 60 minutes p.i. […] The ratio of signal intensities of healthy lymph node tissue to metastasis was 1.9 at the time of 15 minutes p.i. and 1.8 at the time of 60 minutes p.i.

Take `CC(C(=O)NCC(=O)NCCOCCOCCOCCCNC(=O)COCCC(F)(F)C(F)(F)C(F)(F)C(F)(F)C(F)(F)C(F)(F)C(F)(F)C(F)(F)F)N1CCN(CC(=O)[O-])CCN(CC(=O)[O-])CCN(CC(=O)[O-])CC1.[Gd+3]` (centres unmarked) [metal complex IX]: in series [1], the “2 Rh (hydrodynamic micelle diameter)” value was determined as 6.0 nm. The “R^1 Plasma (relaxivity)” value in series [2] amounted to 13.3 mmol⁻¹ s⁻¹. The “CMC (critical micelle formation concentration)” value (from here on “CMC”) in series [3] is 2.65e-06 mol/L.
`CCN(CCCCCC(=O)NCC(O)CN1CCN(CC(=O)[O-])CCN(CC(=O)[O-])CCN(CC(=O)[O-])CC1)S(=O)(=O)C(F)(F)C(F)(F)C(F)(F)C(F)(F)C(F)(F)C(F)(F)C(F)(F)C(F)(F)F.[Gd+3]` (centres unmarked) [metal complex XII, Gadolinium complex of 10-[2-hydroxy-4-aza-5-oxo-11-aza-11-(perfluorooctyl-sulfonyl)-tridecyl]-1,4,7-tris(carboxymethyl) 1,4,7,10-tetraazacyclododecane]: the “2 Rh (hydrodynamic micelle diameter)” value in series [1] is reported as 7.4 nm. For the same compound, in series [2], the “R^1 Plasma (relaxivity)” value was 30.5 mmol⁻¹ s⁻¹. Moreover, the “CMC” value in series [3] stood at 1.07e-05 mol/L.
As for `CC(C(=O)NCC(=O)N1CCN(S(=O)(=O)C(F)(F)C(F)(F)C(F)(F)C(F)(F)C(F)(F)C(F)(F)C(F)(F)C(F)(F)F)CC1)N1CCN(CC(=O)[O-])CCN(CC(=O)[O-])CCN(CC(=O)[O-])CC1.[Gd+3]` (centres unmarked) [metal complex I, Gadolinium complex of 10-[1-methyl-2-oxo-3-aza-5-oxo-{4-perfluorooctyl-sulfonyl-piperazin-1-yl}-pentyl]-1,4,7-tris(carboxymethyl)-1,4,7,10-tetraazacyclododecane], the “signal in the infarction area (T1-weighted spin-echo images)” value in the series with myocardial infarction is on record as “strong signal rise”. The “2 Rh (hydrodynamic micelle diameter)” value in series [1] turned out to be 4.6 nm. The “R^1 Plasma (relaxivity)” value in series [2] was 35.7 mmol⁻¹ s⁻¹. Besides, in series [3], the “CMC” value was found to be 1.86e-06 mol/L. The “enhancement of the primary tumor (especially the periphery)” value in series [4] (60 minutes p.i.) is “considerable enhancement”. Besides, in series [4] (20 hours p.i.), the “course of the signal rise of the primary tumor” value is on record as “propagated in the more central region of the tumor”. For the same compound, the “enhancement of a pathological structure (optionally secondary tumor or necrosis) on the contralateral side” value in series [4] (late images) is “late enhancement”. The “signal in healthy lymph node tissue (T1-weighted gradient-echo images)” value with iliac lymph nodes is listed as “strong signal rise”.
On to `CC(C(=O)NCC(=O)NCCCC[C@H](NC(=O)CNC(=O)C(C)N1CCN(CC(=O)[O-])CCN(CC(=O)[O-])CCN(CC(=O)[O-])CC1)C(=O)N1CCN(S(=O)(=O)C(F)(F)C(F)(F)C(F)(F)C(F)(F)C(F)(F)C(F)(F)C(F)(F)C(F)(F)F)CC1)N1CCN(CC(=O)[O-])CCN(CC(=O)[O-])CCN(CC(=O)[O-])CC1.[Gd+3].[Gd+3]` (some centres unmarked) [metal complex XVI], for which, in series [1], the “2 Rh (hydrodynamic micelle diameter)” value is 4.9 nm. Further, the “R^1 Plasma (relaxivity)” value in series [2] was 21.3 mmol⁻¹ s⁻¹. Besides, in series [3], the “CMC” value stood at 3.9e-05 mol/L.
For `O=C([O-])CN1CCN(CC(=O)[O-])CCN(CC(O)CNC(=O)COCCC(F)(F)C(F)(F)C(F)(F)C(F)(F)C(F)(F)C(F)(F)C(F)(F)C(F)(F)F)CCN(CC(=O)[O-])CC1.[Gd+3]` (centres unmarked) [metal complex II, Gadolinium complex of 10-[2-hydroxy-4-aza-5-oxo-7-oxa-10,10,11,11,12,12,13,13,14,14,15,15,16,16,17,17-heptadecafluoroheptadecyl]-1,4,7-tris (carboxymethyl)-1,4,7,10-tetraazacyclododecane] the same measures were 14 nm, 33 mmol⁻¹ s⁻¹ and 2.3e-05 mol/L.
Taken in the same sequence, the figures for `O=C([O-])CN1CCN(CC(=O)[O-])CCN(CC(O)COCCC(F)(F)C(F)(F)C(F)(F)C(F)(F)C(F)(F)C(F)(F)C(F)(F)C(F)(F)F)CCN(CC(=O)[O-])CC1.[Gd+3]` (centres unmarked) [metal complex VI, Gadolinium complex of 10-[2-hydroxy-4-oxa-1H,1H,2H,2H,3H,3H,5H,5H,6H,6H-perfluorotetradecyl]-1,4,7-tris(carboxymethyl)-1,4,7,10-tetraazacyclododecane] were 3.2 nm, 27.5 mmol⁻¹ s⁻¹ and 1.44e-05 mol/L.
For `O=C([O-])CN1CCN(CC(=O)[O-])CCN(CC(O)CNC(=O)COCCC(F)(F)C(F)(F)C(F)(F)C(F)(F)C(F)(F)C(F)(F)C(F)(F)C(F)(F)C(F)(F)C(F)(F)F)CCN(CC(=O)[O-])CC1.[Gd+3]` (centres unmarked) [metal complex XI, Gadolinium complex of 10-[2-hydroxy-4-aza-5-oxo-7-oxa-10,10,11,11,12,12,13,13,14,14,15,15,16,16,17,17,18,18,19,19-henicosafluoro-nonadecyl]-1,4,7-tris(carboxymethyl)-1,4,7,10-tetraazacyclododecane] the same measures were 35.5 nm, 24.8 mmol⁻¹ s⁻¹ and 2.88e-06 mol/L.
Take `CC(C(=O)NCC(=O)N(CCOCCO)CCOCCC(F)(F)C(F)(F)C(F)(F)C(F)(F)C(F)(F)C(F)(F)C(F)(F)C(F)(F)F)N1CCN(CC(=O)[O-])CCN(CC(=O)[O-])CCN(CC(=O)[O-])CC1.[Gd+3]` (centres unmarked) [metal complex VIII]: in series [1], the “2 Rh (hydrodynamic micelle diameter)” value came to 25 nm. Besides, the “R^1 Plasma (relaxivity)” value in series [2] came out at 21.2 mmol⁻¹ s⁻¹. Besides, the “CMC” value in series [3] came to 2.92e-05 mol/L.
For `CCN(CC(=O)NCC(O)CN1CCN(CC(=O)[O-])CCN(CC(=O)[O-])CCN(CC(=O)[O-])CC1)S(=O)(=O)C(F)(F)C(F)(F)C(F)(F)C(F)(F)C(F)(F)C(F)(F)C(F)(F)C(F)(F)F.[Gd+3]` (centres unmarked) [metal complex IV, Gadolinium complex of 10-[2-hydroxy-4-aza-5-oxo-7-aza-7-(perfluorooctyl-sulfonyl)-nonyl]-1,4,7-tris (carboxymethyl)-1,4,7,10-tetraazacyclododecane] the same measures were 31.5 nm, 29.7 mmol⁻¹ s⁻¹ and 1e-06 mol/L.
For `O=C([O-])CN1CCN(CC(=O)[O-])CCN(CC(O)CNC(=O)CN(Cc2ccccc2)S(=O)(=O)C(F)(F)C(F)(F)C(F)(F)C(F)(F)C(F)(F)C(F)(F)C(F)(F)C(F)(F)F)CCN(CC(=O)[O-])CC1.[Gd+3]` (centres unmarked) [metal complex XIII, Gadolinium complex of 10-[2-hydroxy-4-aza-5-oxo-7-aza-7-(perfluorooctyl-sulfonyl)-8-phenyl-octyl]-1-4-7-tris(carboxymethyl)-1,4,7,10-tetraazacyclododecane] the same measures were 4.3 nm, 34.0 mmol⁻¹ s⁻¹ and 3.25e-06 mol/L.
For `COCCOCCOCCOCCOCCN(CCOCCC(F)(F)C(F)(F)C(F)(F)C(F)(F)C(F)(F)C(F)(F)C(F)(F)C(F)(F)F)C(=O)CNC(=O)C(C)N1CCN(CC(=O)[O-])CCN(CC(=O)[O-])CCN(CC(=O)[O-])CC1.[Gd+3]` (centres unmarked) [metal complex VII] the same measures were 3.0 nm, 30.3 mmol⁻¹ s⁻¹ and 5.2e-05 mol/L.
